Laboratory results published in patent US20070224155A1, “Cleansing compositions and methods of reducing skin irritation” (ACCESS BUSINESS GROUP INTERNATIONAL, LLC, priority 2006, published 2007).

Test system: IL-1 alpha
Experiment: IL-1 alpha assay: ELISA of IL-1α secreted by fibroblast/keratinocyte co-cultures exposed to a surfactant irritant with or without mildness agent
Format: cell-based, human
Conditions: hand dishwashing detergent; for Percent IL-1 α Reduction AVG: average of 1%, 0.1% and 0.01%
From the text: IL-1 alpha is one cytokine often released near the beginning of the inflammation cascade, which ultimately leads to a human biological response resulting in visible and/or perceptual signs of irritation. Accordingly, by reducing the initial response to an irritant, such as a surfactant, the ultimate damaging reaction can be reduced, prevented, and/or eliminated.
The procedure for conducting IL-1 alpha assays is as follows: Co-cultures of fibroblasts and keratinocytes, the primary cell types found in skin, are established using 100,000 fibroblasts and 200,000 keratinocytes per well. These types of cells are those found in the outer layers of the skin exposed to detergent during every day use. An irritant, for example the surfactant package used in a dish detergent (Example 1 below), is then applied to the coculture wells to initiate the production and secretion of pro-inflammatory cytokines by the cells. One such cytokine is human interleukin-1 alpha or IL-1α. In the body, this protein is a key mediator of the host response to infections and various inflammatory challenges. Once produced, IL-1α stimulates production of other pro-inflammatory cytokines and bioactive molecules. Together, these biological molecules send the message that something is wrong and the keratinocytes and fibroblasts need help. This is called the inflammatory response.
The amount of secreted IL-1α is directly related to the intensity of the inflammatory response. In vitro, the concentration of IL-1α secreted by the co-culture cells in response to the irritant can be measured via a precise laboratory technique known as an Enzyme Linked Immuno-Sorbent Assay or ELISA. Thus, to test botanical materials for mildness, a lessening of IL-1α secretion, the mildness agents were added with the chemical irritant. When a reduction in IL-1α expression was observed, the mildness agents were successful. Theoretically, there are several mechanisms by which this could have been achieved at the cellular level. Without wishing to be bound to a particular theory or in any way limit the scope of the appended claims or their equivalents, it is presently believed that these mechanisms may include one or more of the following: the mildness agent could block the transcription of the DNA to RNA, translation of the RNA to protein, and/or release of the IL-1α from the cells. […] The mildness agent may also have stopped the cascade after the irritant works on the cell. Whatever the mechanism, the net result is the same. There is less IL-1α released by the cells which correlates to inhibition of events in the inflammatory cascade and ultimately, less inflammation.
These were prepared using a serial dilution technique: 1.0 g botanical was mixed well with 99.0 g dish detergent to give the 1.0% formulation; next, 10.0 g of the 1.0% solution was mixed well with 90.0 g of the dish detergent to give the 0.1% formulation; finally, 10.0 g of the 0.1% solution was mixed well with 90.0 g of the dish detergent to give the 0.01% formulation.

[1] = botanical concentration 0.01% by weight
[2] = botanical concentration 0.1% by weight
[3] = botanical concentration 1% by weight

Structure (SMILES): N[C@@H](CCC(=O)O)C(=O)NCCc1c[nH]c2ccccc12 [GLISTIN, glutaurylamidoethyl indole]
- Percent IL-1 α Reduction AVG: 22.63%
- Percent IL-1 α Reduction [1]: 18.50%
- Percent IL-1 α Reduction [2]: 31.80%
- Percent IL-1 α Reduction [3]: 17.60%

Structure (SMILES): O=C(O)c1ccccc1O.O[SiH2]O [D.S.B.C., silanediol salicylate]
- Percent IL-1 α Reduction AVG: 12.42%
- Percent IL-1 α Reduction [1]: 7.46%
- Percent IL-1 α Reduction [2]: 13.07%
- Percent IL-1 α Reduction [3]: 16.74%
